Results from ChEMBL document CHEMBL1136378, “Novel 6,7-diphenyl-2,3,8,8a-tetrahydro-1H-indolizin-5-one analogues as cytotoxic agents” (Bioorg Med Chem Lett, 2003).

Experiments:
[1] = Average growth inhibition against cell lines was calculated; format: functional
SW-620 [2] = assay: In vitro cytotoxic activity tested against human colon cancer (SW620) cell line; format: functional
NCI-H522 [3] = assay: In vitro cytotoxic activity tested against human lung cancer (H-522) cell line
SK-OV-3 [4] = assay: In vitro cytotoxic activity tested against human ovarian cancer (SK-OV3) cell line; format: functional
U-251 = assay: In vitro cytotoxic activity tested against human CNS (U251) cell line; format: functional
DU-145 [5] = assay: In vitro cytotoxic activity tested against human prostate cancer (DU145) cell line; format: functional
NCI/ADR-RES [6] = assay: In vitro cytotoxic activity tested against human breast cancer MCF/ADR cell line
M14 [7] = assay: In vitro cytotoxic activity was tested against human melanoma cancer (M14) cell line; format: functional
A498 [8] = assay: In vitro cytotoxic activity was tested against human renal cancer (A498) cell line; format: functional
[9] = Cmax value was determined at a dose of 200 mg/kg (i.p.) in Mice; format: ADME, organism-based; set-up: dose 200 mg/kg, route intraperitoneal; details: mouse, in vivo, ip
[10] = Tmax value was determined at a dose of 200 mg/kg (i.p.) in Mice; format: ADME, organism-based; set-up: dose 200 mg/kg, route intraperitoneal; details: mouse, in vivo, ip
[11] = Area under curve was determined at a dose of 200 mg/kg (i.p.) in Mice; format: ADME, organism-based; set-up: dose 200 mg/kg, route intraperitoneal; details: mouse, in vivo, ip
[12] = Half life beta(2,4,6,8h) value was determined at a dose of 200 mg/kg (i.p.) in Mice; format: ADME, organism-based; set-up: dose 200 mg/kg, route intraperitoneal; details: mouse, in vivo, ip, read-out: T1/2 beta (converted)
NCI-H522 [13] = assay: In vitro cytotoxic activity against human lung cancer (H-522) cell line
M14 [14] = assay: In vitro cytotoxic activity against human melanoma cancer (M14) cell line; format: functional
SK-OV-3 [15] = assay: In vitro cytotoxic activity against human ovarian cancer (SK-OV3) cell line; format: functional
SW-620 [16] = assay: In vitro cytotoxic activity against human colon cancer (SW620) cell line; format: functional
DU-145 [17] = assay: In vitro cytotoxic activity against human prostate cancer (DU145) cell line; format: functional
NCI/ADR-RES [18] = assay: In vitro cytotoxic activity against human breast cancer MCF/ADR cell line; format: functional
A498 [19] = assay: In vitro cytotoxic activity against human renal cancer (A498) cell line; format: functional
[20] = Cmax value was determined at a dose of 100 mg/kg (i.p.) in Mice; format: ADME, organism-based; set-up: dose 100 mg/kg, route intraperitoneal; details: mouse, in vivo, ip
[21] = Tmax value was determined at a dose of 100 mg/kg (i.p.) in Mice; format: ADME, organism-based; set-up: dose 100 mg/kg, route intraperitoneal; details: mouse, in vivo, ip
[22] = Area under curve was determined at a dose of 100 mg/kg (i.p.) in Mice; format: ADME, organism-based; set-up: dose 100 mg/kg, route intraperitoneal; details: mouse, in vivo, ip

Row | Compound | GI50 [1] | GI50 (SW-620 [2]) | GI50 (NCI-H522 [3]) | GI50 (SK-OV-3 [4]) | GI50 (U-251) | GI50 (DU-145 [5]) | GI50 (NCI/ADR-RES [6]) | GI50 (M14 [7]) | GI50 (A498 [8]) | further results
1 | COc1ccc(C2=C(c3ccc(SC)cc3)CC3CCCN3C2=O)cc1OC(=O)C1CCCN1C(=O)OC(C)(C)C (stereo not drawn) | 6 µM | 10 µM | 5 µM | 10 µM | 2 µM | 5 µM | 4 µM |  |  | 
2 | CSc1ccc(C2=C(c3ccc(F)c(C)c3)C(=O)N3CCCC3C2)cc1 (stereo not drawn) | 1.1 µM | 0.6 µM | 0.5 µM | 0.3 µM | 0.2 µM | 0.5 µM | 0.5 µM | 0.8 µM | 0.3 µM | 
3 | COc1ccc(C2=C(c3ccc(SC)cc3)CC3CCCN3C2=O)cc1OC(=O)CNC(=O)OC(C)(C)C (stereo not drawn) | 11.5 µM | 20 µM | 7 µM | 20 µM | 6 µM | 10 µM | 6 µM |  |  | 
4 | COc1ccc(C2=C(c3ccc(SC)cc3)CC3CCCN3C2=O)cc1OC (stereo not drawn) | 3.6 µM | 3 µM | 2 µM | 9 µM | 0.3 µM | 1.5 µM | 0.6 µM | 5 µM | 8 µM | Cmax [9]: 23 µM; Tmax [10]: 0.25 h; AUC [11]: 102 µM·h; half-life [12]: 7.29 h
5 | CSc1ccc(C2=C(c3ccc(F)cc3)C(=O)N3CCCC3C2)cc1 (stereo not drawn) | 4.1 µM | 0.5 µM | 0.25 µM | 30 µM | 0.09 µM | 0.5 µM | 0.8 µM | 0.6 µM | 0.1 µM | Cmax [9]: 0.99 µM; Tmax [10]: 1.5 h; AUC [11]: 3.88 µM·h; half-life [12]: 2.59 h
6 | COc1ccc(C2=C(c3ccc(SC)cc3)CC3CCCN3C2=O)cc1Br (stereo not drawn) | 2.5 µM | 5 µM | 0.7 µM | 3 µM | 0.8 µM | 0.9 µM | 6 µM | 3 µM | 0.6 µM | 
7 | COc1ccc(C2=C(c3cc(OC)c(OC)c(OC)c3)CC3CCCN3C2=O)cc1O (stereo not drawn) | > 100 µM | > 100 µM | > 100 µM | > 100 µM | > 100 µM | > 100 µM | > 100 µM | > 100 µM | > 100 µM | 
8 | COc1cc(C2=C(c3ccc(SC)cc3)CC3CCCN3C2=O)ccc1O (stereo not drawn) | 7.75 µM | 9 µM | 7 µM | 8 µM | 8 µM | 8 µM | 8 µM | 9 µM | 5 µM | 
9 | COc1ccc(C2=C(c3ccc(SC)cc3)CC3CCCN3C2=O)cc1 (stereo not drawn) | 2.4 µM | 3 µM | 0.8 µM | 3 µM | 2 µM | 0.9 µM | 5 µM | 4 µM | 0.8 µM | 
10 | CSc1ccc(C2=C(c3ccc(Br)cc3)C(=O)N3CCCC3C2)cc1 (stereo not drawn) | 7.8 µM | 7 µM | 7 µM | 9 µM | 7 µM | 9 µM | 8 µM | 9 µM | 7 µM | 
11 | CSc1ccc(C2=C(c3ccc(SC)cc3)C(=O)N3CCCC3C2)cc1 (stereo not drawn) | 8.1 µM | 7 µM | 15 µM | 2 µM | 5 µM | 8 µM | 8 µM | 5 µM | 15 µM | Cmax [9]: 0.86 µM; Tmax [10]: 1 h; AUC [11]: 2.5 µM·h
12 | CSc1ccc(C2=C(c3ccc(O)c(O)c3)C(=O)N3CCCC3C2)cc1 (stereo not drawn) | 60 µM | 50 µM | 60 µM | 80 µM | 30 µM | 60 µM | 80 µM |  |  | 
13 | CSc1ccc(C2=C(c3ccc(C)cc3)C(=O)N3CCCC3C2)cc1 (stereo not drawn) | 3 µM | 3 µM | 0.9 µM | 9 µM | 0.4 µM | 0.6 µM | 0.6 µM | 6 µM | 4 µM | Cmax [9]: 8.02 µM; Tmax [10]: 0.25 h; AUC [11]: 38.5 µM·h; half-life [12]: 6.24 h
14 | CSc1ccc(C2=C(c3ccc(C)c(C)c3)C(=O)N3CCCC3C2)cc1 (stereo not drawn) | 1.7 µM | 0.7 µM | 0.3 µM | 0.3 µM | 10 µM | 0.5 µM | 0.8 µM | 0.8 µM | 0.3 µM | 
15 | CSc1ccc(C2=C(c3ccc(O)cc3)C(=O)N3CCCC3C2)cc1 (stereo not drawn) | > 100 µM | > 100 µM | > 100 µM | > 100 µM | > 100 µM | > 100 µM | > 100 µM | > 100 µM | > 100 µM | 
16 | CSc1ccc(C2=C(c3ccc(C(F)(F)F)cc3)C(=O)N3CCCC3C2)cc1 (stereo not drawn) | 6.3 µM |  |  |  | 0.8 µM |  |  |  |  | GI50 (NCI-H522 [13]): 0.8 µM; GI50 (M14 [14]): 12 µM; GI50 (SK-OV-3 [15]): 15 µM; Cmax [9]: 3.79 µM; GI50 (SW-620 [16]): 0.8 µM; GI50 (DU-145 [17]): 0.7 µM; GI50 (NCI/ADR-RES [18]): 0.8 µM; Tmax [10]: 0.25 h; AUC [11]: 10.7 µM·h; GI50 (A498 [19]): 20 µM; half-life [12]: 2.66 h
17 | COc1ccc(C2=C(c3ccc(OC)c(OC)c3)C(=O)N3CCCC3C2)cc1OC (stereo not drawn) | > 100 µM | > 100 µM | > 100 µM | > 100 µM | > 100 µM | > 100 µM | > 100 µM | > 100 µM | > 100 µM | 
18 | COc1ccc(C2=C(c3ccc(SC)cc3)CC3CCCN3C2=O)cc1C (stereo not drawn) | 2.1 µM | 0.5 µM | 0.1 µM | 15 µM | 0.09 µM | 0.9 µM | 0.4 µM | 0.2 µM | 0.4 µM | 
19 | COc1ccc(C2=C(c3ccc(SC)cc3)CC3CCCN3C2=O)cc1O (stereo not drawn) | 23.6 µM | 20 µM | 6 µM | > 100 µM | 5 µM | 6 µM | 5 µM |  |  | 
20 | CSc1ccc(C2=C(c3ccc(OCC4CO4)cc3)C(=O)N3CCCC3C2)cc1 (stereo not drawn) | 2.6 µM | 0.09 µM | 0.03 µM | 10 µM | 0.08 µM | 0.5 µM | 10 µM | 0.09 µM | 0.5 µM | 
21 | COc1ccc(/C=C\c2cc(OC)c(OC)c(OC)c2)cc1O [COMBRETASTATIN A4] | 0.103 µM | 0.005 µM | 0.007 µM | < 0.0001 µM | 0.006 µM |  | 0.09 µM | 0.0001 µM | 0.61 µM | 
22 | CSc1ccc(C2=C(c3ccc(F)c(F)c3)C(=O)N3CCCC3C2)cc1 (stereo not drawn) | 2.1 µM | 0.2 µM | 0.2 µM | 0.1 µM | 15 µM | 0.5 µM | 0.8 µM | 0.3 µM | 0.1 µM | Cmax [20]: 3.61 µM; Tmax [21]: 0.29 h; AUC [22]: 6.92 µM·h
23 | COc1ccc(C2=C(c3ccc(SC)cc3)CC3CCCN3C2)cc1O (stereo not drawn) | > 100 µM | > 100 µM | > 100 µM | > 100 µM | > 100 µM | > 100 µM | > 100 µM | > 100 µM | > 100 µM | 
24 | CSc1ccc(C2=C(c3ccc(OCCN4CCOCC4)cc3)C(=O)N3CCCC3C2)cc1 (stereo not drawn) | 11.5 µM | 9 µM | 7 µM | 9 µM | 9 µM | 20 µM | 9 µM | 20 µM | 9 µM | 
25 | COc1ccc(C2=C(c3ccc(OC)c(OC)c3)CN3CCCC3C2)cc1OC (stereo not drawn) | > 100 µM | > 100 µM | > 100 µM | > 100 µM | > 100 µM | > 100 µM | > 100 µM | > 100 µM | > 100 µM | 
